{"source": "paper PMC5218480", "about": "(PLoS ONE, 2017)", "tested_on": "MV-4-11 cells", "assay": "Gene expression microarray analysis (Affymetrix PrimeView) and GSEA", "type": "cell-based, human", "design": "RFU PODN (11730768_x_at) / Fold change /veh PODN (11730768_x_at) / RFU LINC00158 (11744669_a_at) / Fold change /veh LINC00158 (11744669_a_at) / RFU DUSP10 (11751237_a_at) / Fold change /veh DUSP10 (11751237_a_at) / RFU ID3 (11757404_x_at) / Fold change /veh ID3 (11757404_x_at) / RFU PLEKHG5 (11737974_s_at) / Fold change /veh PLEKHG5 (11737974_s_at) / RFU LRRC4B (11730491_at) / Fold change /veh LRRC4B (11730491_at) / RFU GIMAP4 (11747438_a_at) / Fold change /veh GIMAP4 (11747438_a_at) / RFU KRT8 (11758183_x_at) / Fold change /veh KRT8 (11758183_x_at) / RFU CNN1 (11734310_a_at) / Fold change /veh CNN1 (11734310_a_at) / RFU VPS37D (11726825_at) / Fold change /veh VPS37D (11726825_at) / RFU C10orf10 (11716522_x_at) / Fold change /veh C10orf10 (11716522_x_at) / RFU KIR2DL2 /// KIR2DL4 /// KIR2DL5A /// KIR2DL5B /// KIR2DS1 /// KIR2DS2 /// KIR2DS3 /// KIR2DS4 /// KIR3DL3 /// KIR3DL3 /// KIR3DS1 (11738374_at) / Fold change /veh KIR2DL2 /// KIR2DL4 /// KIR2DL5A /// KIR2DL5B /// KIR2DS1 /// KIR2DS2 /// KIR2DS3 /// KIR2DS4 /// KIR3DL3 /// KIR3DL3 /// KIR3DS1 (11738374_at) / RFU C1QL1 (11718748_at) / Fold change /veh C1QL1 (11718748_at) / RFU TMPRSS4 (11747572_a_at) / Fold change /veh TMPRSS4 (11747572_a_at) / RFU HAMP (11756126_x_at) / Fold change /veh HAMP (11756126_x_at) / RFU RNFT2 (11725882_a_at) / Fold change /veh RNFT2 (11725882_a_at) / RFU NR4A2 (11747474_a_at) / Fold change /veh NR4A2 (11747474_a_at) / RFU ABCC12 (11746883_a_at) / Fold change /veh ABCC12 (11746883_a_at) / RFU TMEM136 (11760407_x_at) / Fold change /veh TMEM136 (11760407_x_at) / RFU CLDN22 /// WWC2 (11732394_at) / Fold change /veh CLDN22 /// WWC2 (11732394_at) / RFU HLA-DPB1 (11760878_x_at) / Fold change /veh HLA-DPB1 (11760878_x_at) / RFU SPINT1 (11716480_a_at) / Fold change /veh SPINT1 (11716480_a_at) / RFU GAP43 (11754022_s_at) / Fold change /veh GAP43 (11754022_s_at) / RFU A4GNT (11735810_at) / Fold change /veh A4GNT (11735810_at) / RFU PRB3 (11715151_x_at) / Fold change /veh PRB3 (11715151_x_at) / RFU TUBB4B (11761932_at) / Fold change /veh TUBB4B (11761932_at) / RFU CAPN14 (11732068_a_at) / Fold change /veh CAPN14 (11732068_a_at) / RFU TMCC2 (11721928_a_at) / Fold change /veh TMCC2 (11721928_a_at) / RFU IRGQ (11745062_a_at) / Fold change /veh IRGQ (11745062_a_at) / RFU FAM174B (11720279_a_at) / Fold change /veh FAM174B (11720279_a_at) / RFU TMPRSS4 (11748680_a_at) / Fold change /veh TMPRSS4 (11748680_a_at) / RFU FAM212B (11763350_a_at) / Fold change /veh FAM212B (11763350_a_at) / RFU PLEKHG5 (11743358_a_at) / Fold change /veh PLEKHG5 (11743358_a_at) / RFU ZSCAN30 (11745921_a_at) / Fold change /veh ZSCAN30 (11745921_a_at) / RFU CMKLR1 (11741424_a_at) / Fold change /veh CMKLR1 (11741424_a_at) / RFU LOC101060620 /// MAPK8IP1 (11723275_at) / Fold change /veh LOC101060620 /// MAPK8IP1 (11723275_at) / RFU SPTSSB (11747773_x_at) / Fold change /veh SPTSSB (11747773_x_at) / RFU PRSS12 (11739890_at) / Fold change /veh PRSS12 (11739890_at) / RFU BIN1 (11741810_x_at) / Fold change /veh BIN1 (11741810_x_at) / RFU WNT11 (11732464_a_at) / Fold change /veh WNT11 (11732464_a_at) / RFU C10orf10 (11716521_a_at) / Fold change /veh C10orf10 (11716521_a_at) / RFU C5orf56 (11738089_at) / Fold change /veh C5orf56 (11738089_at) / RFU CYB561 (11721691_x_at) / Fold change /veh CYB561 (11721691_x_at) / RFU ANKRD19P (11752326_a_at) / Fold change /veh ANKRD19P (11752326_a_at) / RFU OR2T12 /// OR2T33 /// OR2T8 (11738714_s_at) / Fold change /veh OR2T12 /// OR2T33 /// OR2T8 (11738714_s_at) / RFU VCAN (11748164_a_at) / Fold change /veh VCAN (11748164_a_at) / RFU JSRP1 (11732532_at) / Fold change /veh JSRP1 (11732532_at) / RFU KRTAP10-11 (11738290_x_at) / Fold change /veh KRTAP10-11 (11738290_x_at) / RFU MYO3A (11730013_a_at) / Fold change /veh MYO3A (11730013_a_at) / RFU EBF3 (11725865_a_at) / Fold change /veh EBF3 (11725865_a_at) / RFU CAMK2N1 (11719241_x_at) / Fold change /veh CAMK2N1 (11719241_x_at) / RFU C5orf56 (11738088_a_at) / Fold change /veh C5orf56 (11738088_a_at) / RFU OLFML3 (11715873_a_at) / Fold change /veh OLFML3 (11715873_a_at) / RFU LOC100653217 /// NTM (11731650_a_at) / Fold change /veh LOC100653217 /// NTM (11731650_a_at) / RFU MAPK11 (11762145_a_at) / Fold change /veh MAPK11 (11762145_a_at) / RFU FIZ1 (11724087_x_at) / Fold change /veh FIZ1 (11724087_x_at) / RFU OASL (11726364_x_at) / Fold change /veh OASL (11726364_x_at) / RFU SOX15 (11748057_x_at) / Fold change /veh SOX15 (11748057_x_at) / RFU CD79A (11719716_a_at) / Fold change /veh CD79A (11719716_a_at) / RFU HIST1H1D (11736915_at) / Fold change /veh HIST1H1D (11736915_at) / RFU CASKIN2 (11723855_a_at) / Fold change /veh CASKIN2 (11723855_a_at) / RFU LOC730098 (11760151_x_at) / Fold change /veh LOC730098 (11760151_x_at) / RFU OR4N2 (11742367_at) / Fold change /veh OR4N2 (11742367_at) / RFU PRRT2 (11749266_a_at) / Fold change /veh PRRT2 (11749266_a_at) / RFU SNX32 (11753110_a_at) / Fold change /veh SNX32 (11753110_a_at) / RFU CDHR5 (11726645_a_at) / Fold change /veh CDHR5 (11726645_a_at) / RFU RCAN1 (11760418_a_at) / Fold change /veh RCAN1 (11760418_a_at) / RFU FAM167A (11723789_a_at) / Fold change /veh FAM167A (11723789_a_at) / RFU FAM26E (11764081_at) / Fold change /veh FAM26E (11764081_at) / RFU ISYNA1 (11749810_s_at) / Fold change /veh ISYNA1 (11749810_s_at) / RFU ACY1 (11761880_at) / Fold change /veh ACY1 (11761880_at) / RFU 11764098_at / Fold change /veh 11764098_at / RFU SAMD14 (11745864_x_at) / Fold change /veh SAMD14 (11745864_x_at) / RFU NPB (11741838_a_at) / Fold change /veh NPB (11741838_a_at) / RFU TMPRSS6 (11731388_a_at) / Fold change /veh TMPRSS6 (11731388_a_at) / RFU KRTAP10-2 (11738614_at) / Fold change /veh KRTAP10-2 (11738614_at) / RFU ARHGAP8 /// PRR5-ARHGAP8 (11727945_x_at) / Fold change /veh ARHGAP8 /// PRR5-ARHGAP8 (11727945_x_at) / RFU KRTAP5-7 /// NADSYN1 (11734609_at) / Fold change /veh KRTAP5-7 /// NADSYN1 (11734609_at) / RFU RASL12 (11751679_a_at) / Fold change /veh RASL12 (11751679_a_at) / RFU CDKN2B (11736163_a_at) / Fold change /veh CDKN2B (11736163_a_at) / RFU PRF1 (11729649_at) / Fold change /veh PRF1 (11729649_at) / RFU, ZNF638 /// ZNF638-IT1 / Fold change vs veh, ZNF638 /// ZNF638-IT1 / RFU, PANK3 / Fold change vs veh, PANK3 / RFU, SH3YL1 / Fold change vs veh, SH3YL1 / RFU, ZEB2 / Fold change vs veh, ZEB2 / RFU, NRIP1 / Fold change vs veh, NRIP1 / RFU, PTTG1IP / Fold change vs veh, PTTG1IP / RFU, CAPN2 / Fold change vs veh, CAPN2 / RFU, MED14 / Fold change vs veh, MED14 / RFU, SNORA58 / Fold change vs veh, SNORA58 / RFU, C1orf63 / Fold change vs veh, C1orf63 / RFU, LRRFIP1 / Fold change vs veh, LRRFIP1 / RFU, NDUFAF7 / Fold change vs veh, NDUFAF7 / RFU, SLC12A2 / Fold change vs veh, SLC12A2 / RFU, IBTK / Fold change vs veh, IBTK / RFU, ESF1 / Fold change vs veh, ESF1 / Fold change vs veh, TMEM50B / RFU, TAOK1 / Fold change vs veh, TAOK1 / RFU, ACBD3 / Fold change vs veh, ACBD3 / RFU, TMA16 / Fold change vs veh, TMA16 / RFU, RWDD3 / Fold change vs veh, RWDD3 / RFU, BCAT1 / Fold change vs veh, BCAT1 / RFU, EDEM3 / Fold change vs veh, EDEM3 / RFU, TMEM33 / Fold change vs veh, TMEM33 / RFU, WDR75 / Fold change vs veh, WDR75 / RFU, AHCTF1 / Fold change vs veh, AHCTF1 / RFU, TFRC / Fold change vs veh, TFRC / RFU, ZDHHC17 / Fold change vs veh, ZDHHC17 / RFU, NOM1 / Fold change vs veh, NOM1 / RFU, ARL8B / Fold change vs veh, ARL8B / RFU, ZBTB11 / Fold change vs veh, ZBTB11 / RFU, TAMM41 / Fold change vs veh, TAMM41 / RFU, KIAA1704 /// LOC100996395 / Fold change vs veh, KIAA1704 /// LOC100996395 / RFU, ING1 / Fold change vs veh, ING1 / RFU, TRMT61B / Fold change vs veh, TRMT61B / RFU, FUBP3 / Fold change vs veh, FUBP3 / RFU, TP53 / Fold change vs veh, TP53 / RFU, TNKS2 / Fold change vs veh, TNKS2 / RFU, ZFP14 / Fold change vs veh, ZFP14 / RFU, ACTR2 / Fold change vs veh, ACTR2 / RFU, PPP3R1 / Fold change vs veh, PPP3R1 / RFU, PIK3R1 / Fold change vs veh, PIK3R1 / RFU, HNRNPA1 / Fold change vs veh, HNRNPA1 / RFU, RNF170 / Fold change vs veh, RNF170 / RFU, ZNF28 / Fold change vs veh, ZNF28 / RFU, RNGTT / Fold change vs veh, RNGTT / RFU, OGT / Fold change vs veh, OGT / RFU, BRD1 / Fold change vs veh, BRD1 / RFU, MARS / Fold change vs veh, MARS / RFU, ZNF655 / Fold change vs veh, ZNF655 / RFU, FAHD1 / Fold change vs veh, FAHD1 / RFU, BDP1 / Fold change vs veh, BDP1 / RFU, LRRCC1 / Fold change vs veh, LRRCC1 / RFU, ARID1A / Fold change vs veh, ARID1A / RFU, ZNF146 / Fold change vs veh, ZNF146 / RFU, ZNF330 / Fold change vs veh, ZNF330 / RFU, GPN3 / Fold change vs veh, GPN3 / RFU, C9orf123 / Fold change vs veh, C9orf123 / RFU, N4BP2L2 / Fold change vs veh, N4BP2L2 / RFU, ARFIP1 / Fold change vs veh, ARFIP1 / RFU, FAM179B / Fold change vs veh, FAM179B / RFU, BCL10 / Fold change vs veh, BCL10 / RFU, UHRF1BP1L / Fold change vs veh, UHRF1BP1L / RFU, BET1 / Fold change vs veh, BET1 / RFU, CNOT2 / Fold change vs veh, CNOT2 / RFU, ZNF268 / Fold change vs veh, ZNF268 / Fold change vs veh, ZNF507 / RFU, DGCR2 / Fold change vs veh, DGCR2 / RFU, WDSUB1 / Fold change vs veh, WDSUB1 / Fold change vs veh, HSP90B1 /// MIR3652 / RFU, ADSS / Fold change vs veh, ADSS / RFU, GK / Fold change vs veh, GK / RFU, ZNF148 / Fold change vs veh, ZNF148 / RFU, TAF9 / Fold change vs veh, TAF9 / RFU, SLC1A5 / Fold change vs veh, SLC1A5 / RFU, SLMO2 / Fold change vs veh, SLMO2 / RFU, ABCC4 / Fold change vs veh, ABCC4 / RFU, LOC101060439 /// RAP1B / Fold change vs veh, LOC101060439 /// RAP1B / RFU, RFX7 / Fold change vs veh, RFX7 / RFU, GTPBP10 / Fold change vs veh, GTPBP10 / RFU, CNEP1R1 / Fold change vs veh, CNEP1R1 / RFU, BIVM-ERCC5 /// ERCC5 / Fold change vs veh, BIVM-ERCC5 /// ERCC5 / RFU, ILF3 / Fold change vs veh, ILF3 / RFU 11762660_at / Fold change /veh 11762660_at / RFU VCAN (11757783_s_at) / Fold change /veh VCAN (11757783_s_at) / RFU DDX43 (11728927_at) / Fold change /veh DDX43 (11728927_at) / RFU KRT8 (11758188_x_at) / Fold change /veh KRT8 (11758188_x_at) / RFU NKD1 (11759106_at) / Fold change /veh NKD1 (11759106_at) / RFU SRD5A1 (11742802_a_at) / Fold change /veh SRD5A1 (11742802_a_at) / RFU TPSAB1 /// TPSB2 (11721975_s_at) / Fold change /veh TPSAB1 /// TPSB2 (11721975_s_at) / RFU GSTM3 (11746129_a_at) / Fold change /veh GSTM3 (11746129_a_at) / RFU IL23R (11737362_x_at) / Fold change /veh IL23R (11737362_x_at) / RFU TMEM51 (11727254_a_at) / Fold change /veh TMEM51 (11727254_a_at) / RFU PIWIL2 (11732686_x_at) / Fold change /veh PIWIL2 (11732686_x_at) / RFU ORM1 (11744905_x_at) / Fold change /veh ORM1 (11744905_x_at) / RFU CCDC152 (11743942_at) / Fold change /veh CCDC152 (11743942_at) / RFU ECM1 (11717891_a_at) / Fold change /veh ECM1 (11717891_a_at) / RFU IL23R (11748794_a_at) / Fold change /veh IL23R (11748794_a_at) / RFU TNFAIP8L3 (11732012_x_at) / Fold change /veh TNFAIP8L3 (11732012_x_at) / RFU MBOAT4 (11741988_at) / Fold change /veh MBOAT4 (11741988_at) / RFU 11764193_at / Fold change /veh 11764193_at / RFU TMEM53 (11763286_at) / Fold change /veh TMEM53 (11763286_at) / RFU MAGEB2 (11727129_at) / Fold change /veh MAGEB2 (11727129_at) / RFU TMEM200A (11744735_a_at) / Fold change /veh TMEM200A (11744735_a_at) / RFU CCDC152 (11751479_a_at) / Fold change /veh CCDC152 (11751479_a_at) / RFU FAM211A (11726209_a_at) / Fold change /veh FAM211A (11726209_a_at) / RFU RGS16 (11746705_a_at) / Fold change /veh RGS16 (11746705_a_at) / RFU VCAN (11755009_s_at) / Fold change /veh VCAN (11755009_s_at) / RFU RHOB (11743442_s_at) / Fold change /veh RHOB (11743442_s_at) / RFU RGS16 (11720943_a_at) / Fold change /veh RGS16 (11720943_a_at) / RFU RGS16 (11720944_at) / Fold change /veh RGS16 (11720944_at) / RFU, VPS4B / Fold change vs veh, VPS4B / RFU, CREB1 / Fold change vs veh, CREB1 / RFU, DNAJC13 / Fold change vs veh, DNAJC13 / RFU, GNAQ / Fold change vs veh, GNAQ / RFU, CDK5R1 / Fold change vs veh, CDK5R1 / RFU, ZRANB3 / Fold change vs veh, ZRANB3 / RFU, CUL4A / Fold change vs veh, CUL4A / RFU, CCNY / Fold change vs veh, CCNY / RFU, UFL1 / Fold change vs veh, UFL1 / RFU, COG3 / Fold change vs veh, COG3 / RFU, DIAPH2 / Fold change vs veh, DIAPH2 / RFU, SKA2 / Fold change vs veh, SKA2 / RFU, AFF3 / Fold change vs veh, AFF3 / RFU, LMF1 / Fold change vs veh, LMF1 / RFU, IPO11 / Fold change vs veh, IPO11 / RFU, DFFB / Fold change vs veh, DFFB / RFU, FOXP1 / Fold change vs veh, FOXP1 / RFU, CARD8 / Fold change vs veh, CARD8 / RFU, STRN3 / Fold change vs veh, STRN3 / RFU, ADK / Fold change vs veh, ADK / RFU, RASSF2 / Fold change vs veh, RASSF2 / RFU, WIPF1 / Fold change vs veh, WIPF1 / RFU, LARP1B / Fold change vs veh, LARP1B / RFU, RASA1 / Fold change vs veh, RASA1 / RFU, RB1 / Fold change vs veh, RB1 / RFU, PPFIA1 / Fold change vs veh, PPFIA1 / RFU, MAT2A / Fold change vs veh, MAT2A / RFU, CCT5 / Fold change vs veh, CCT5 / RFU, WDR92 / Fold change vs veh, WDR92 / RFU, CUX1 / Fold change vs veh, CUX1 / RFU, TTC7A / Fold change vs veh, TTC7A / RFU, TMEM135 / Fold change vs veh, TMEM135 / RFU, DEPTOR / Fold change vs veh, DEPTOR / RFU, CPM / Fold change vs veh, CPM / RFU, DNAJB6 / Fold change vs veh, DNAJB6 / RFU, CACNA2D3 / Fold change vs veh, CACNA2D3 / RFU, DTX4 / Fold change vs veh, DTX4 / RFU, TFCP2 / Fold change vs veh, TFCP2 / RFU, GMCL1 /// GMCL1P1 / Fold change vs veh, GMCL1 /// GMCL1P1 / RFU, AEBP2 / Fold change vs veh, AEBP2 / RFU, SNHG1 /// SNORD22 /// SNORD25 /// SNORD26 /// SNORD27 /// SNORD28 /// SNORD29 /// SNORD31 / Fold change vs veh, SNHG1 /// SNORD22 /// SNORD25 /// SNORD26 /// SNORD27 /// SNORD28 /// SNORD29 /// SNORD31 / Fold change (Aza/veh), C12orf56 (ProbeSet 11735607_a_at) / Fold change (ACY-1035/veh), C12orf56 (ProbeSet 11735607_a_at) / Fold change (Aza/veh), FGFR1OP (ProbeSet 11751329_s_at) / Fold change (ACY-1035/veh), FGFR1OP (ProbeSet 11751329_s_at) / Fold change (Aza/veh), VPS36 (ProbeSet 11739960_a_at) / Fold change (ACY-1035/veh), VPS36 (ProbeSet 11739960_a_at) / RFU SYPL1 (11715823_x_at) / Fold change /veh SYPL1 (11715823_x_at) / RFU IGFBP7 (11715501_s_at) / Fold change /veh IGFBP7 (11715501_s_at) / RFU REEP3 (11722064_at) / Fold change /veh REEP3 (11722064_at) / RFU IGLL1 (11728026_x_at) / Fold change /veh IGLL1 (11728026_x_at): dose or concentration left out as unconfirmed", "conditions": "ProbeSet 11728676_at; LIST B"}
{"molecule": "Nc1ncn([C@@H]2O[C@H](CO)[C@@H](O)[C@H]2O)c(=O)n1", "note": "[azacitidine]", "values": [{"measurement": "RFU, MED14", "value": 205.61, "unit": "RFU"}]}
